PubChem BioAssay (NCI)
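Briefly, cells in 96-well plates were exposed to five compound concentrations for 48 h, and endpoints were estimated by linear interpolation. The concentration for 50% growth inhibition is given as GI50. Definition used: TGI = concentration required for complete inhibition of growth.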

How the values were obtained:
Test in all cases: NCI tumour cell line growth inhibition, 48 h
786-0 renal = test system: 786-0 renal
A498 renal = test system: A498 renal
A549 NSCLC = test system: A549 NSCLC
ACHN renal = test system: ACHN renal
BT-549 breast = test system: BT-549 breast
CAKI-1 renal = test system: CAKI-1 renal
CCRF-CEM leukemia = test system: CCRF-CEM leukemia
COLO 205 colon = test system: COLO 205 colon
DU-145 prostate = test system: DU-145 prostate
HCC-2998 colon = test system: HCC-2998 colon
HCT-116 colon = test system: HCT-116 colon
HCT-15 colon = test system: HCT-15 colon
HL-60(TB) leukemia = test system: HL-60(TB) leukemia
HOP-62 NSCLC = test system: HOP-62 NSCLC
HOP-92 NSCLC = test system: HOP-92 NSCLC
HS 578T breast = test system: HS 578T breast
HT29 colon = test system: HT29 colon
IGROV1 ovarian = test system: IGROV1 ovarian
K-562 leukemia = test system: K-562 leukemia
KM12 colon = test system: KM12 colon
LOX IMVI melanoma = test system: LOX IMVI melanoma
M14 melanoma = test system: M14 melanoma
MALME-3M melanoma = test system: MALME-3M melanoma
MCF7 breast = test system: MCF7 breast
MDA-MB-231 breast = test system: MDA-MB-231 breast
MDA-MB-435 = test system: MDA-MB-435
MOLT-4 leukemia = test system: MOLT-4 leukemia
NCI-H226 lung = test system: NCI-H226 lung
NCI-H23 lung = test system: NCI-H23 lung
NCI-H460 lung = test system: NCI-H460 lung
NCI-H522 lung = test system: NCI-H522 lung
NCI/ADR-RES ovarian = test system: NCI/ADR-RES ovarian
OVCAR-3 ovarian = test system: OVCAR-3 ovarian
OVCAR-5 ovarian = test system: OVCAR-5 ovarian
OVCAR-8 ovarian = test system: OVCAR-8 ovarian
PC-3 prostate = test system: PC-3 prostate
RXF 393 renal = test system: RXF 393 renal
SF-268 CNS = test system: SF-268 CNS
SF-295 CNS = test system: SF-295 CNS
SF-539 CNS = test system: SF-539 CNS
SK-MEL-2 melanoma = test system: SK-MEL-2 melanoma
SK-MEL-28 melanoma = test system: SK-MEL-28 melanoma
SK-MEL-5 melanoma = test system: SK-MEL-5 melanoma
SK-OV-3 ovarian = test system: SK-OV-3 ovarian
SN12C renal = test system: SN12C renal
SNB-19 CNS = test system: SNB-19 CNS
SNB-75 CNS = test system: SNB-75 CNS
SR leukemia = test system: SR leukemia
SW-620 colon = test system: SW-620 colon
T-47D breast = test system: T-47D breast
TK-10 renal = test system: TK-10 renal
U251 CNS = test system: U251 CNS
UACC-257 melanoma = test system: UACC-257 melanoma
UACC-62 melanoma = test system: UACC-62 melanoma
UO-31 renal = test system: UO-31 renal

COc1cc(C2CC(c3ccc(Nc4ccnc5cc(Cl)ccc45)cc3)=NN2c2ccc(Cl)cc2)cc(OC)c1OC (stereo not given)
GI50 (786-0 renal): 2880 nM | TGI (786-0 renal): > 100 µM | GI50 (A498 renal): 1660 nM | TGI (A498 renal): 50.6 µM | GI50 (A549 NSCLC): 4.15 µM | TGI (A549 NSCLC): > 100 µM | GI50 (ACHN renal): 1850 nM | TGI (ACHN renal): > 100 µM | GI50 (BT-549 breast): 2930 nM | TGI (BT-549 breast): > 100 µM | GI50 (CAKI-1 renal): 2120 nM | TGI (CAKI-1 renal): > 100 µM | GI50 (CCRF-CEM leukemia): 2500 nM | TGI (CCRF-CEM leukemia): > 100 µM | GI50 (COLO 205 colon): 3.28 µM | TGI (COLO 205 colon): 31.5 µM | GI50 (DU-145 prostate): 8.08 µM | TGI (DU-145 prostate): > 100 µM | GI50 (HCC-2998 colon): 2090 nM | TGI (HCC-2998 colon): 8.03 µM | GI50 (HCT-116 colon): 3.08 µM | TGI (HCT-116 colon): > 100 µM | GI50 (HCT-15 colon): 877 nM | TGI (HCT-15 colon): > 100 µM | GI50 (HL-60(TB) leukemia): 4.68 µM | TGI (HL-60(TB) leukemia): > 100 µM | GI50 (HOP-62 NSCLC): 2140 nM | TGI (HOP-62 NSCLC): 47.5 µM | GI50 (HOP-92 NSCLC): 1640 nM | TGI (HOP-92 NSCLC): > 100 µM | GI50 (HS 578T breast): 2180 nM | TGI (HS 578T breast): > 100 µM | GI50 (HT29 colon): 2660 nM | TGI (HT29 colon): > 100 µM | GI50 (IGROV1 ovarian): 4.81 µM | TGI (IGROV1 ovarian): > 100 µM | GI50 (K-562 leukemia): 857 nM | TGI (K-562 leukemia): > 100 µM | GI50 (KM12 colon): 1670 nM | TGI (KM12 colon): > 100 µM | GI50 (LOX IMVI melanoma): 1660 nM | TGI (LOX IMVI melanoma): 11.3 µM | GI50 (M14 melanoma): 2010 nM | TGI (M14 melanoma): 9.61 µM | GI50 (MALME-3M melanoma): > 100 µM | TGI (MALME-3M melanoma): > 100 µM | GI50 (MCF7 breast): 860 nM | TGI (MCF7 breast): > 100 µM | GI50 (MDA-MB-231 breast): 1930 nM | TGI (MDA-MB-231 breast): 27.1 µM | GI50 (MDA-MB-435): 329 nM | TGI (MDA-MB-435): 2050 nM | GI50 (MOLT-4 leukemia): 3.86 µM | TGI (MOLT-4 leukemia): > 100 µM | GI50 (NCI-H226 lung): 4.77 µM | TGI (NCI-H226 lung): > 100 µM | GI50 (NCI-H23 lung): 8.82 µM | TGI (NCI-H23 lung): > 100 µM | GI50 (NCI-H460 lung): 3.16 µM | TGI (NCI-H460 lung): > 100 µM | GI50 (NCI-H522 lung): 1850 nM | TGI (NCI-H522 lung): 50.2 µM | GI50 (NCI/ADR-RES ovarian): 1700 nM | TGI (NCI/ADR-RES ovarian): > 100 µM | GI50 (OVCAR-3 ovarian): 1870 nM | TGI (OVCAR-3 ovarian): > 100 µM | GI50 (OVCAR-5 ovarian): 6.08 µM | TGI (OVCAR-5 ovarian): > 100 µM | GI50 (OVCAR-8 ovarian): 4.19 µM | TGI (OVCAR-8 ovarian): > 100 µM | GI50 (PC-3 prostate): 1470 nM | TGI (PC-3 prostate): > 100 µM | GI50 (RXF 393 renal): 1340 nM | TGI (RXF 393 renal): 8.05 µM | GI50 (SF-268 CNS): 5.49 µM | TGI (SF-268 CNS): > 100 µM | GI50 (SF-295 CNS): 2020 nM | TGI (SF-295 CNS): 8.32 µM | GI50 (SF-539 CNS): 1740 nM | TGI (SF-539 CNS): 7.36 µM | GI50 (SK-MEL-2 melanoma): 2350 nM | TGI (SK-MEL-2 melanoma): 6.6 µM | GI50 (SK-MEL-28 melanoma): 2660 nM | TGI (SK-MEL-28 melanoma): 55.9 µM | GI50 (SK-MEL-5 melanoma): 2680 nM | TGI (SK-MEL-5 melanoma): 15.6 µM | GI50 (SK-OV-3 ovarian): 3.26 µM | TGI (SK-OV-3 ovarian): > 100 µM | GI50 (SN12C renal): 7.56 µM | TGI (SN12C renal): > 100 µM | GI50 (SNB-19 CNS): 4.91 µM | TGI (SNB-19 CNS): > 100 µM | GI50 (SNB-75 CNS): 1110 nM | TGI (SNB-75 CNS): 6.68 µM | GI50 (SR leukemia): 1200 nM | TGI (SR leukemia): 56.3 µM | GI50 (SW-620 colon): 2550 nM | TGI (SW-620 colon): > 100 µM | GI50 (T-47D breast): 2130 nM | TGI (T-47D breast): > 100 µM | GI50 (TK-10 renal): 5.05 µM | TGI (TK-10 renal): > 100 µM | GI50 (U251 CNS): 2910 nM | TGI (U251 CNS): > 100 µM | GI50 (UACC-257 melanoma): 2720 nM | TGI (UACC-257 melanoma): 36.4 µM | GI50 (UACC-62 melanoma): 1170 nM | TGI (UACC-62 melanoma): 5.54 µM | GI50 (UO-31 renal): 1580 nM | TGI (UO-31 renal): > 100 µM
